According to the NIST ThermoML archive (doi:10.1021/je060093l):

Key:
[1] = refractive index (Na D-line) (dimensionless); conditions: 298.15 K; 101.33 kPa; Liquid; Standard Abbe refractometry
[2] = Liquid, Ebulliometric method (Recirculating still)

Cc1ccccc1C [1,2-dimethylbenzene]
Conditions | refractive index
[1] | 1.5026

CCCS [1-propanethiol]
[2]
Conditions | vapor or sublimation pressure [kPa]
310.52 K | 34.6
315.47 K | 41.96
320.68 K | 51.03
325.73 K | 61.23
330.38 K | 72.02
334.62 K | 83.15
337.03 K | 90.03
340.63 K | 101.19

Conditions | refractive index
[1] | 1.4353

CCSCC [3-thiapentane]
[2]
Conditions | vapor or sublimation pressure [kPa]
333.82 K | 35.84
338.63 K | 42.73
344.7 K | 52.89
350.02 K | 63.3
353.56 K | 71.09
358.41 K | 83.03
361.02 K | 90.03
361.03 K | 90.03
365.05 K | 101.92

Conditions | refractive index
[1] | 1.44

c1ccsc1 [thiophene]
[2]
Conditions | vapor or sublimation pressure [kPa]
328.01 K | 37.5
331.52 K | 42.75
337.52 K | 53.02
341.13 K | 60.12
346.44 K | 71.92
350.46 K | 82.01
353.38 K | 90.03
356.73 K | 99.99

Conditions | refractive index
[1] | 1.5255

Cc1ccccc1 [toluene]
[2]
Conditions | vapor or sublimation pressure [kPa]
352.64 K | 38.32
356.84 K | 44.23
361.31 K | 51.31
367.88 K | 63.37
372.12 K | 72.27
375.63 K | 80.42
379.44 K | 90.03
379.45 K | 90.03

Conditions | refractive index
[1] | 1.4939
